From paper PMC8260761, “A bacteriocin-based treatment option for Staphylococcus haemolyticus biofilms” (Scientific Reports, 2021)

Columns and labels:
Experiment in all cases: Spot-on-lawn inhibition assay
Assay type in all cases: cell-based
L. plantarum = system: L. plantarum; design: key: –: “−” = No inhibition; “+” = Unclear zone; “++” = zone < 1 cm; “+++” = zone ≥ 1 cm; conditions: L. plantarum LMG 2352; 5 µl at 1 mg/ml; n=3
Experimental: (§1) A semi-quantitative spot-on-lawn inhibitory assay was performed on 51 bacterial indicator strains (Table S1) to determine the bacteriocins inhibition spectra. Overnight cultures were diluted 1:100 in BHI soft agar and distributed on BHI agar plates. Once solidified, bacteriocins with various concentrations were applied on designated spots. The plates were incubated at appropriate temperature O/N and inhibition zones were measured the following day. To determine minimal inhibitory concentration (MIC50) of H1 against clinical S. haemolyticus isolates (Table S2), as well as strains heterologously expressing RseP (Table S4), the microtiterplate antimicrobial assay was performed as previously described[41],[79]. MIC50 was defined as the minimal bacteriocin concentration needs to inhibit the growth of a bacterial strain by at least 50%.

E. faecalis = system: E. faecalis; design: key: –: “−” = No inhibition; “+” = Unclear zone; “++” = zone < 1 cm; “+++” = zone ≥ 1 cm; conditions: 5 µl at 1 mg/ml, n=3
Experimental: as §1

L. ivanovii = system: L. ivanovii; design: key: –: “−” = No inhibition; “+” = Unclear zone; “++” = zone < 1 cm; “+++” = zone ≥ 1 cm; conditions: L. ivanovii Li4; 5 µl at 1 mg/ml; n=3
Experimental: as §1

Enterococcus avium = system: Enterococcus avium; design: key: –: “−” = No inhibition; “+” = Unclear zone; “++” = zone < 1 cm; “+++” = zone ≥ 1 cm; conditions: Enterococcus avium LMG 3465; 5 µl at 1 mg/ml; n=3
Experimental: as §1

Lactococcus garvieae = system: Lactococcus garvieae; design: key: –: “−” = No inhibition; “+” = Unclear zone; “++” = zone < 1 cm; “+++” = zone ≥ 1 cm; conditions: Lactococcus garvieae DCC43; 5 µl at 1 mg/ml; n=3
Experimental: as §1

S. simulans = system: S. simulans; design: key: “-“ = No inhibition; “+” = Unclear zone; “++” = zone < 1 cm; “+++”= zone > 1 cm; conditions: S. simulans LMG 3233; 5 µl at 1 mg/ml; n=3
Experimental: as §1

S. uberis = system: S. uberis; design: key: “-“ = No inhibition; “+” = Unclear zone; “++” = zone < 1 cm; “+++”= zone > 1 cm; conditions: 5 µl at 1 mg/ml, n=3
Experimental: as §1

L. monocytogenes = system: L. monocytogenes; design: key: “-“ = No inhibition; “+” = Unclear zone; “++” = zone < 1 cm; “+++”= zone > 1 cm; conditions: 5 µl at 1 mg/ml, n=3
Experimental: as §1

L. salivarius = system: L. salivarius; design: key: “-“ = No inhibition; “+” = Unclear zone; “++” = zone < 1 cm; “+++”= zone > 1 cm; conditions: L. salivarius UCC118; 5 µl at 1 mg/ml; n=3
Experimental: as §1

S. thermophilus = system: S. thermophilus; design: key: “-“ = No inhibition; “+” = Unclear zone; “++” = zone < 1 cm; “+++”= zone > 1 cm; conditions: S. thermophilus Sfi13; 5 µl at 1 mg/ml; n=3
Experimental: as §1

L. gelidum = system: L. gelidum; design: key: “-“ = No inhibition; “+” = Unclear zone; “++” = zone < 1 cm; “+++”= zone > 1 cm; conditions: L. gelidum LMG 2386; 5 µl at 1 mg/ml; n=3
Experimental: as §1

L. innocua = system: L. innocua; design: key: “-“ = No inhibition; “+” = Unclear zone; “++” = zone < 1 cm; “+++”= zone > 1 cm; conditions: 5 µl at 1 mg/ml, n=3
Experimental: as §1

Esherichia coli = system: Esherichia coli; design: key: “-“ = No inhibition; “+” = Unclear zone; “++” = zone < 1 cm; “+++”= zone > 1 cm; conditions: 5 µl at 1 mg/ml, n=3
Experimental: as §1

S. aureus = system: S. aureus; design: key: “-“ = No inhibition; “+” = Unclear zone; “++” = zone < 1 cm; “+++”= zone > 1 cm; conditions: 5 µl at 1 mg/ml, n=3
Experimental: as §1

L. lactis = system: L. lactis; design: key: “-“ = No inhibition; “+” = Unclear zone; “++” = zone < 1 cm; “+++”= zone > 1 cm; conditions: 5 µl at 1 mg/ml, n=3
Experimental: as §1

[1] = system: Streptococcus dysgalactiae; design: key: “-“ = No inhibition; “+” = Unclear zone; “++” = zone < 1 cm; “+++”= zone > 1 cm; conditions: Streptococcus dysgalactiae 7649-3; 5 µl at 1 mg/ml; n=3
Experimental: as §1

S. homonis = S. homonis LMG 3129; 5 µl at 1 mg/ml; n=3
Experimental: as §1

E. faecium = conditions: 5 µl at 1 mg/ml, n=3
Experimental: as §1

Lactobacillus curvatus = conditions: 5 µl at 1 mg/ml, n=3
Experimental: as §1

[2] = Lactobacillus curvatus LTH 1174

“MLAKIKAMIKKFPNPYTLAAKLTTYEINWYKQQYGRYPWERPVA [EJ97, enterocin EJ97]” was tested, and the Average inhibition score (L. plantarum) was “++ (“++” = zone < 1 cm)”, the Average inhibition score (E. faecalis; E. faecalis LMG 2333) was “+++ (“+++”= zone > 1 cm)” and the Average inhibition score (E. faecalis; E. faecalis LMG 3330) was “+++ (“+++”= zone > 1 cm)”. The Average inhibition score (E. faecalis; E. faecalis LMG 3331) was “+++ (“+++”= zone > 1 cm)”, the Average inhibition score (E. faecalis; E. faecalis LMG 3332) was “+++ (“+++”= zone > 1 cm)” and the Average inhibition score (E. faecalis; E. faecalis V583) was “+”. The Average inhibition score (L. ivanovii) was “+”, the Average inhibition score (Enterococcus avium) was “+++ (“+++”= zone > 1 cm)” and the Average inhibition score (Lactococcus garvieae) was “+”. The Average inhibition score (S. simulans) was “-”, the Average inhibition score (S. uberis; S. uberis 7904-3) was “-” and the Average inhibition score (S. uberis; S. uberis 8008-1) was “-”. For the same sequence, the Average inhibition score (L. monocytogenes; L. monocytogenes 223) was “-”, the Average inhibition score (L. monocytogenes; L. monocytogenes 279) was “-” and the Average inhibition score (L. monocytogenes; L. monocytogenes 400) was “-”. The Average inhibition score (L. monocytogenes; L. monocytogenes 403) was “-”, the Average inhibition score (L. salivarius) was “-” and the Average inhibition score (S. thermophilus) was “-”. For the same sequence, the Average inhibition score (L. gelidum) was “-”, the Average inhibition score (L. innocua; L. innocua LMG 2710) was “+++ (“+++”= zone > 1 cm)” and the Average inhibition score (L. innocua; L. innocua LMG 2785) was “-”. The Average inhibition score (Esherichia coli; E. coli TG1) was “-”, the Average inhibition score (Esherichia coli; Esherichia coli DH5α) was “-” and the Average inhibition score (S. aureus; S. aureus ATCC14458) was “-”. For the same sequence, the Average inhibition score (S. aureus; S. aureus LMG 3325) was “-”, the Average inhibition score (S. aureus; S. aureus LMG 3328) was “-” and the Average inhibition score (S. aureus; S. aureus LMG 3329) was “-”. The Average inhibition score (L. lactis; L. lactis IL1403) was “+++ (“+++”= zone > 1 cm)”, the Average inhibition score (L. lactis; L. lactis LMG 2081) was “-” and the Average inhibition score [1] was “-”. The Average inhibition score (S. homonis) was “+++ (“+++”= zone > 1 cm)”, the Average inhibition score (E. faecium; E. faecium AL41) was “+++ (“+++”= zone > 1 cm)” and the Average inhibition score (E. faecium; E. faecium L50) was “+++ (“+++”= zone > 1 cm)”. The Average inhibition score (E. faecium; E. faecium P13) was “+++ (“+++”= zone > 1 cm)”, the Average inhibition score (E. faecium; E. faecium P21) was “+++ (“+++”= zone > 1 cm)” and the Average inhibition score (Lactobacillus curvatus; L. curvatus LMG 2353) was “+++ (“+++”= zone > 1 cm)”. For the same sequence, the Average inhibition score (Lactobacillus curvatus; [2]) was “+++ (“+++”= zone > 1 cm)”.

For “MKFKFNPTGTIVKKLTQYEIAWFKNKHGYYPWEIPRC [K1, enterocin K1]”, the Average inhibition score (L. plantarum) was “+”, the Average inhibition score (E. faecalis; E. faecalis LMG 2333) was “+” and the Average inhibition score (E. faecalis; E. faecalis LMG 3330) was “+”. The Average inhibition score (E. faecalis; E. faecalis LMG 3331) was “+”, the Average inhibition score (E. faecalis; E. faecalis LMG 3332) was “+” and the Average inhibition score (E. faecalis; E. faecalis V583) was “+”. For the same sequence, the Average inhibition score (L. ivanovii) was “+”, the Average inhibition score (Enterococcus avium) was “+” and the Average inhibition score (Lactococcus garvieae) was “+++ (“+++”= zone > 1 cm)”. For the same sequence, the Average inhibition score (S. simulans) was “-”, the Average inhibition score (S. uberis; S. uberis 8008-1) was “-” and the Average inhibition score (L. monocytogenes; L. monocytogenes 223) was “-”. The Average inhibition score (L. monocytogenes; L. monocytogenes 279) was “-”, the Average inhibition score (L. monocytogenes; L. monocytogenes 400) was “-” and the Average inhibition score (L. monocytogenes; L. monocytogenes 403) was “-”. The Average inhibition score (L. salivarius) was “-”, the Average inhibition score (S. thermophilus) was “-” and the Average inhibition score (L. gelidum) was “-”. The Average inhibition score (L. innocua; L. innocua LMG 2710) was “++ (“++” = zone < 1 cm)”, the Average inhibition score (L. innocua; L. innocua LMG 2785) was “+++ (“+++”= zone > 1 cm)” and the Average inhibition score (Esherichia coli; E. coli TG1) was “-”. For the same sequence, the Average inhibition score (Esherichia coli; Esherichia coli DH5α) was “-”, the Average inhibition score (S. aureus; S. aureus ATCC14458) was “-” and the Average inhibition score (S. aureus; S. aureus LMG 3263) was “-”. The Average inhibition score (S. aureus; S. aureus LMG 3325) was “-”, the Average inhibition score (S. aureus; S. aureus LMG 3326) was “-” and the Average inhibition score (S. aureus; S. aureus LMG 3328) was “-”. For the same sequence, the Average inhibition score (S. aureus; S. aureus LMG 3329) was “-”, the Average inhibition score (L. lactis; L. lactis IL1403) was “+++ (“+++”= zone > 1 cm)” and the Average inhibition score (L. lactis; L. lactis LMG 2081) was “-”. For the same sequence, the Average inhibition score [1] was “-”, the Average inhibition score (S. homonis) was “++ (“++” = zone < 1 cm)” and the Average inhibition score (E. faecium; E. faecium AL41) was “++ (“++” = zone < 1 cm)”. For the same sequence, the Average inhibition score (E. faecium; E. faecium L50) was “++ (“++” = zone < 1 cm)”, the Average inhibition score (E. faecium; E. faecium P13) was “+++ (“+++”= zone > 1 cm)” and the Average inhibition score (E. faecium; E. faecium P21) was “++ (“++” = zone < 1 cm)”. The Average inhibition score (Lactobacillus curvatus; L. curvatus LMG 2353) was “+++ (“+++”= zone > 1 cm)” and the Average inhibition score (Lactobacillus curvatus; [2]) was “+++ (“+++”= zone > 1 cm)”.
